In PMC6025875, “Genetic manipulation of Leishmania donovani threonyl tRNA synthetase facilitates its exploration as a potential therapeutic target” (PLoS Neglected Tropical Diseases, 2018):

Key:
[1] = molecular target: T1, threonyl tRNA synthetase (LdThrRS) (Leishmania donovani, UniProt A0A3S7X901); experiment: ITC at […]°C (N = […]); also inhibits aminoacylation of the purified enzyme, IC50 […]; assay type: binding
T1 construct: gene LdCL_350019100; full-length recombinant LdThrRS with N-terminal His6 tag (rLdThrRS, pET30a, E. coli BL21 (DE3))

purified protein = substrate: C[C@@H](O)[C@H](N)C(=O)O; experiment: purified protein

Molecule	Kd [1] [nM]	Km (purified protein) [µM]
C[C@@H]1C[C@H](C)C[C@H](C)[C@@H](O)CC(=O)O[C@H]([C@@H]2CCC[C@H]2C(=O)O)C/C=C/C=C(/C#N)[C@H](O)[C@@H](C)C1 [borrelidin]	40	
threonyl tRNA synthetase (LdThrRS) (Leishmania donovani) (protein) MSGKKKAAEATVDLATLAEPGFWRQRVEIFEQLWQQQQNRYESMKAPIKVSLPDGKVMDAESWVTCPLDIAKRLSNSLPDKVIVARVNEALWDLTRPFEADCQLELLDWDDKDAREVFWHSSSHVLGYALERIFDTKLSVGPALEEGGFFYEGLTNRPVSESDYKAIESAMQELVKQKMPYQRLEVSKEDALRLFGYTEFKSKILASKVPDGGSCTVYRCGMLIDPCRGPHLPDTGRVKAFAVTKNSSSYFEGKAENEVLQRVYGISFPKNPMLTEWKTIQEEAAKRDHRVIGRQQNLFNFHEVSPGSAFWLPHGTRIYNTLVEFLRKKYRRCGFQEVISPNMYSSKLWMVSGHWEKYADNMFCTKCEKEDFGLKPMNCPGHCIMFASQPHSYKELPIRYADFGVLHRNELSGALTGLTRVRRFQQDDAHIFCRMDQITDEMEGQMQFLSDVYGVLGFKFYFYHSTRPANKLGSDALWDQSESYLRTALNRFCGIPEELPDPLHPDQRFHYDGKPDSVKKMKALMKKAERCEDPNAWKGPTNGGDGWIENAGDGAFYGPKIDIVVEDALRRRHQCATIQLDFNLPSRFGLKYTLPAAEKDETTVSPTEKQKHADPALTASSPAVEDCVSKPKPGTYEAAVRDLGIDLELDANQARPVMIHRAILGSLERSIAILCEHFGGDWPFWLSPRQVMVVPVSASNYEYSQQVRDTMHDAGFHADVDNGAATLDKKIRNAEKARYNFILVVGQKEQDATAVNIRARGEKRLGNKSLVEAVQWLKELADTHNREY		250 ± 30
